Source: ChEMBL document CHEMBL4257571, “Discovery of 5-(2-chloro-4'-(1H-imidazol-1-yl)-[1,1'-biphenyl]-4-yl)-1H-tetrazole as potent and orally efficacious S-nitrosoglutathione reductase (GSNOR) inhibitors for the potential treatment of COPD” (Bioorg Med Chem Lett, 2018)
pIC50: −log10 of the molar value. ≈ marks a conversion by molar mass, not a printed value.

Tests used:
Mus musculus [1] = test: (§1) Anti-inflammatory activity in C57BL/6 mouse model of cigarette smoke induced chronic obstructive pulmonary disease assessed as macrophages count in bronchoalveolar lavage at 100 mg/kg, po administered once daily for 7 days 1 hr prior to first smoke exposure and measured on day 8 after last smoke exposure post single drug treatment by Leishman's staining based assay; assay type: functional
[2] = Metabolic stability of human liver microsomes assessed as parent compound remaining at 0.1 uM after 60 mins in presence of NADPH by LC/MS/MS analysis; assay type: ADME, microsome; settings: read-out: Stability
[3] = Clearance in C57/BL6 mouse at 3 mg/kg, iv; assay type: ADME, organism-based; settings: in vivo
[4] = Inhibition of MT3 receptor (unknown origin) at 10 uM relative to control
[5] = Metabolic stability of rat liver microsomes assessed as parent compound remaining at 0.1 uM after 60 mins in presence of NADPH by LC/MS/MS analysis; assay type: ADME, microsome; settings: read-out: Stability
Homo sapiens = species on record: Homo sapiens; test: Inhibition of BZD receptor (unknown origin) at 10 uM relative to control
Mus musculus [6] = test: as §1, with “neutrophil” for “macrophages”, “30” for “100”; assay type: functional
CYP2C9 = CYP2C9 (Homo sapiens, UniProt P11712); test: Inhibition of CYP2C9 in human liver microsomes at 10 uM after 20 mins in presence of NADPH by LC/MS/MS analysis relative to control; assay type: ADME
[7] = Metabolic stability of mouse liver microsomes assessed as parent compound remaining at 0.1 uM after 60 mins in presence of NADPH by LC/MS/MS analysis; assay type: ADME, microsome; settings: read-out: Stability
[8] = target: Alcohol dehydrogenase class-3 (Homo sapiens, UniProt P11766); test: Inhibition of human GSNOR assessed as reduction in NADH consumption after 3 mins by spectrophotometric analysis
Mus musculus [9] = test: as §1, with “total leukocyte” for “macrophages”, “10” for “100”, “hemocytometry” for “Leishman's staining based assay”; assay type: functional
[10] = Aqueous solubility of compound in fasted state stimulated intestinal fluid at pH 6.2; assay type: physicochemical; settings: fasted state simulated intestinal fluid
[11] = Protein binding in human plasma at 10 uM by LC/MS/MS based equilibrium dialysis analysis; assay type: ADME, cell-free; settings: read-out: PPB
[12] = Protein binding in mouse plasma at 10 uM by LC/MS/MS based equilibrium dialysis analysis; assay type: ADME, cell-free; settings: read-out: PPB (converted)
[13] = Aqueous solubility of compound in 0.1 N HCl; assay type: physicochemical
Mus musculus [14] = test: as §1, with “total leukocyte” for “macrophages”, “3” for “100”, “hemocytometry” for “Leishman's staining based assay”; assay type: functional
[15] = Volume of distribution in C57/BL6 mouse at 3 mg/kg, iv; assay type: ADME, organism-based; settings: in vivo, read-out: Vz
CYP1A2 = target: T1, CYP1A2 (Homo sapiens, UniProt P05177); test: Inhibition of CYP1A2 in human liver microsomes at 10 uM after 20 mins in presence of NADPH by LC/MS/MS analysis relative to control; assay type: ADME; settings: liver microsomes
T1 sequence (P05177 whole entry): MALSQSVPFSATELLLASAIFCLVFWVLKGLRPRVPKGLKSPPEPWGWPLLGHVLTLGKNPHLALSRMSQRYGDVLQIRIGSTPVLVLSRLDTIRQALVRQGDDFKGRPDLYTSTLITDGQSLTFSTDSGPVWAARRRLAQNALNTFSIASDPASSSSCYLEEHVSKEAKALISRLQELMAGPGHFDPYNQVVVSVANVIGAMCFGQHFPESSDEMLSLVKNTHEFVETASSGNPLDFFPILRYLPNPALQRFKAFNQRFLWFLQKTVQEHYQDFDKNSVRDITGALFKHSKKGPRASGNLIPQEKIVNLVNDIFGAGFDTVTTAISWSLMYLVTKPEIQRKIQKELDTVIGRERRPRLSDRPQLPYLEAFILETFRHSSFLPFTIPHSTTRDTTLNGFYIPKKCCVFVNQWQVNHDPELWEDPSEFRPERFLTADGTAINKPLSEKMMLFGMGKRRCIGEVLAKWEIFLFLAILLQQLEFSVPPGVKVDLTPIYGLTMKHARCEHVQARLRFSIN

Alcohol dehydrogenase class-3, sequence (P11766 whole entry): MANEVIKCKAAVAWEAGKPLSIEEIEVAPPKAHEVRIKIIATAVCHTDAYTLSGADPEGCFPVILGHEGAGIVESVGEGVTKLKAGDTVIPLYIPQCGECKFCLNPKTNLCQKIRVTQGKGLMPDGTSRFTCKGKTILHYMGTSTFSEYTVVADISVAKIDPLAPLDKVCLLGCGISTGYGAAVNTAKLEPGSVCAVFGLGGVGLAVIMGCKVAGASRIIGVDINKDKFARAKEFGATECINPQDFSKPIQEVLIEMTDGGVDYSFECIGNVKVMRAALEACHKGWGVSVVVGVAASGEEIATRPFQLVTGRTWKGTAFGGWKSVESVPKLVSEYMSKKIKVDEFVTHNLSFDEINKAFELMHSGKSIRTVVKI
CYP2C9, sequence (P11712 whole entry): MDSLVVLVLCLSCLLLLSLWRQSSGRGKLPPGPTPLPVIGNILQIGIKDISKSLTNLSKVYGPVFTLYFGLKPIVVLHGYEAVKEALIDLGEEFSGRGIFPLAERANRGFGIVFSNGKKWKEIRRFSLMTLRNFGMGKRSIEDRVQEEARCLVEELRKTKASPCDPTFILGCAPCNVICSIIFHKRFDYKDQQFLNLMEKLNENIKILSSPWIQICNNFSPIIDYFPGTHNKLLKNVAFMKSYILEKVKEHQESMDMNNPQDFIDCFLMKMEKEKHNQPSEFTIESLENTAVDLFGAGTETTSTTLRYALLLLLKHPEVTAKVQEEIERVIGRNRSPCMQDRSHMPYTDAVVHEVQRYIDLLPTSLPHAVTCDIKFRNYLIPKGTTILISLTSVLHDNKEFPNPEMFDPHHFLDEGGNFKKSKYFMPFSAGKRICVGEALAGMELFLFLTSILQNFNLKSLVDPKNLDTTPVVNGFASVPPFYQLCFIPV

remaining at 1 h, 0.1 µM [2]: 100%
clearance [3]: 1.4 mL/min/kg
inhibition [4]: 100%
remaining at 1 h, 0.1 µM [5]: 83%
inhibition (Homo sapiens): 50%
inhibition at 20 min, 10 µM (CYP2C9): 86%
remaining at 1 h, 0.1 µM [7]: 43%
pIC50 [8]: 8.04
solubility [10]: 3.5 µg/mL (≈ 10.8 µM)
fraction unbound at 10 µM [11]: < 0.005
fraction unbound at 10 µM [12]: 0.015
solubility [13]: 20 µg/mL (≈ 62 µM)
Vd [15]: 0.41 L/kg
inhibition at 20 min, 10 µM (CYP1A2): 32%
Structure (SMILES): Clc1cc(-c2nnn[nH]2)ccc1-c1ccc(-n2ccnc2)cc1
Activity (Mus musculus [1]): 61%
Activity (Mus musculus [6]): 37%
Activity (Mus musculus [9]): 41%
Activity (Mus musculus [14]): 32%
